Legend:
Trypanosoma cruzi = assay: MMV: Inhibition of Trypanosoma cruzi (Tulahuen C4 LacZ) (Chagas in vitro).; type: functional, organism-based
Leishmania infantum = assay: MMV: Inhibition of Leishmania infantum (MHOM/MA/BE/67) in vitro.; type: functional, organism-based
[1] = MMV: Cytotoxicity against human fibroblasts (MRC-5) cells.; conditions: MRC-5 cells (human fibroblasts)
[2] = test system: Trypanosoma brucei brucei; assay: MMV: Inhibition of Trypanosoma brucei brucei (Squib 427) (HAT in vitro).; type: functional, organism-based
[3] = test system: Trypanosoma brucei rhodesiense; assay: MMV: Inhibition of Trypanosoma brucei rhodesiense (STIB 900) (HAT in vitro).; type: functional, organism-based
Plasmodium falciparum [4] = assay: MMV: Inhibition of Plasmodium falciparum 3D7 (EC50).; type: functional, organism-based
Plasmodium falciparum [5] = assay: MMV: Inhibition of Plasmodium falciparum 3D7 at 5uM compound concentration.; type: functional

Row | Structure (SMILES) | IC50 (Trypanosoma cruzi) | IC50 (Leishmania infantum) | IC50 [1] | IC50 [2] | IC50 [3] | EC50 (Plasmodium falciparum [4]) | inhibition at 5 µM (Plasmodium falciparum [5])
1 | COc1ccc(C2c3ccc4ccccc4c3Oc3ncn(CCCN(C)C)c(=N)c32)cc1 (stereo not given) | 1.01 µM | 1.01 µM | 3.49 µM | 0.259 µM | 0.223 µM | 1.23 µM | 
2 | CCN1CCCC1CNc1[nH]cnc2c3cc(Cl)ccc3nc1-2 (stereo not given) | > 32 µM | 16.2 µM | > 32 µM | > 32 µM | > 32 µM | 0.218 µM | 
3 | COc1ccc(-c2c(C)nn3c(N)c(C#N)cnc23)cc1OC | > 32 µM | > 32 µM | 27.6 µM | > 32 µM | > 32 µM | 0.477 µM | 
4 | COc1ccc2c(c1)C1(Nc3ccccc3-c3nc4ccccc4n31)C(=O)N2 (stereo not given) | > 32 µM | > 32 µM | > 32 µM | > 32 µM | > 32 µM | 0.928 µM | 
5 | COc1cccc(Cn2c(Oc3ccccc3)nc3c2c(=O)n(C)c(=O)n3C)c1 | > 32 µM | > 32 µM | > 32 µM | > 32 µM | > 32 µM | 1.39 µM | 
6 | N=c1n(CCN2CCCCC2)c2ccccc2n1CC(=O)c1ccc(Cl)c(Cl)c1 | 4.48 µM | 4.06 µM | 10.6 µM | 4 µM | 1.1 µM | 1.24 µM | 
7 | C[n+]1c2ccccc2nc2ccc(NCCO)cc21 | 16 µM | > 32 µM | > 32 µM | 14 µM | 16 µM | 0.296 µM | 
8 | OC(CNCC1CCCO1)Cn1c2ccc(Cl)cc2c2cc(Cl)ccc21 (stereo not given) | 19.2 µM | 16.1 µM | > 32 µM | 10 µM | 6.12 µM | 1.06 µM | 
9 | Cc1sc(NC(=O)c2ccccc2)c(C(c2cccs2)N2CCN(c3ccccc3)CC2)c1C (stereo not given) | > 32 µM | 12.7 µM | > 32 µM | 6.32 µM | 4 µM | 1.18 µM | 
10 | Cc1sc(NC(=O)c2ccco2)c(C(c2cccnc2)N2CCC(Cc3ccccc3)CC2)c1C (stereo not given) | 1.36 µM | 16.2 µM | > 32 µM | 3.94 µM | 3.97 µM | 1.02 µM | 
11 | CCOC(=O)c1c(C)n(-c2ccccc2)c2ccc(OC(=O)c3cc(OC)c(OC)c(OC)c3)cc12 | 13.3 µM | > 32 µM | 26.4 µM | 16.2 µM | 10.8 µM | 0.615 µM | 
12 | COc1cc(C(=O)Nc2nc3c(cc4c5c(cccc53)CC4)s2)cc(OC)c1OC | > 32 µM | 16.2 µM | > 32 µM | > 32 µM | > 32 µM | 0.898 µM | 
13 | Cc1cc(N2CCCC2)nc(Nc2ccc(NC(=O)CCc3ccccc3)cc2)n1 | 1.01 µM | 1.19 µM | 5.38 µM | 4.3 µM | 0.871 µM | 1.07 µM | 
14 | O=C(NCC(c1ccsc1)N1CCCCCC1)c1ccc(C(F)(F)F)cc1 (stereo not given) | 22.5 µM | 16.1 µM | > 32 µM | 16.1 µM | 1.7 µM | 0.433 µM | 
15 | COc1ccc(-c2cc3c(SCC(=O)Nc4cc(C(F)(F)F)ccc4Cl)nccn3n2)cc1 | > 32 µM | 16.2 µM | > 32 µM | > 32 µM | > 32 µM | 0.0899 µM | 
16 | Cc1ccc(-c2cc3c(SCC(=O)Nc4cc(C(F)(F)F)ccc4Cl)nccn3n2)cc1 | > 32 µM | > 32 µM | > 32 µM | > 32 µM | > 32 µM | 0.0928 µM | 
17 | Cc1cc(NC(=O)c2cccc(C(F)(F)F)c2)n(-c2nc(-c3ccc4c(c3)OCO4)cs2)n1 | > 32 µM | 16.2 µM | > 32 µM | > 32 µM | > 32 µM | 0.959 µM | 
18 | CCN(CC)CCNc1ncnc2c1[nH]c1ccc(Cl)cc12 | 10.7 µM | 16.2 µM | > 32 µM | 4.09 µM | 3.73 µM | 0.406 µM | 
19 | CN1CCN(c2ncnc3c2[nH]c2ccc(Cl)cc23)CC1 | 30.8 µM | 21.5 µM | > 32 µM | 14.6 µM | 11 µM | 1.19 µM | 
20 | CC1(c2ccccc2)Nc2ccccc2-c2nc3ccccc3n21 (stereo not given) | 19.1 µM | > 32 µM | > 32 µM | 17.1 µM | 10.3 µM | 1.73 µM | 
21 | COc1ccc(CCN2C(=O)c3[nH]nc(-c4cc(Cl)c(C)cc4O)c3C2c2ccccc2F)cc1 (stereo not given) | 12.9 µM | 12 µM | > 32 µM | 4 µM | 3.56 µM | 0.916 µM | 
22 | COc1cccc(C2(C)Nc3ccccc3-c3nc4ccccc4n32)c1 (stereo not given) | 13.4 µM | > 32 µM | 26.4 µM | 15 µM | 14.5 µM | 1.15 µM | 

Row | Structure (SMILES) | IC50 (Trypanosoma cruzi) | IC50 (Leishmania infantum) | IC50 [1] | IC50 [2] | IC50 [3] | EC50 (Plasmodium falciparum [4]) | inhibition at 5 µM (Plasmodium falciparum [5])
23 | N#Cc1nc(Cc2cccc3ccccc23)oc1N1CCN(C(c2ccccc2)c2ccccc2)CC1 | > 32 µM | 25.4 µM | > 32 µM | > 32 µM | 15.7 µM | 1.16 µM | 
24 | CC(C)CNC(=O)c1c(N)n(CCc2ccccc2F)c2nc3ccccc3nc12 | > 32 µM | > 32 µM | > 32 µM | > 32 µM | > 32 µM | 0.832 µM | 
25 | O=C(NNc1cc(N2CCCC2)nc(N2CCCC2)n1)c1ccccc1 | 13.7 µM | 25.4 µM | > 32 µM | > 32 µM | 16.5 µM | 1.33 µM | 
26 | CC(C)(C)CC(C)(C)NCC(O)COc1ccc(Cl)cc1Cl (stereo not given) | 12.2 µM | 6.35 µM | 16.1 µM | 4 µM | 4.06 µM | 1.16 µM | 
27 | Cc1cccc(-n2ncc3c(O)nc(-n4nc(C)cc4NC(=O)c4cc5ccccc5o4)nc32)c1 | 0.234 µM | 4.32 µM | 0.653 µM | 0.481 µM | 0.305 µM | 0.929 µM | 
28 | COC(=O)c1ccc(Cl)c2c1C1C=CCC1C(c1cccc3ccccc13)N2 (stereo not given) | 13.5 µM | 17.3 µM | > 32 µM | 16 µM | 11.9 µM | 0.939 µM | 
29 | COc1ccc(C2c3ccc4ccccc4c3Oc3ncn(CCCn4ccnc4)c(=N)c32)cc1OC (stereo not given) | 4.2 µM | 5.38 µM | 10.1 µM | 15.5 µM | 1.8 µM | 1.79 µM | 
30 | CN(N=O)C1=C(NC2CCCCC2)C(=O)c2ccccc2C1=O | 12.8 µM | > 32 µM | > 32 µM | 16.5 µM | 4.61 µM | 1.19 µM | 
31 | OC1=C2C(=Nc3ccccc3SC2c2ccccc2)c2ccccc21 (stereo not given) | 13.9 µM | 16.2 µM | 15.7 µM | 4.15 µM | 3.56 µM | 0.89 µM | 
32 | O=C(NCc1ccco1)C1CCN(S(=O)(=O)c2ccc(Cl)cc2)CC1 | > 32 µM | > 32 µM | > 32 µM | > 32 µM | 28.9 µM | 0.891 µM | 94%
33 | COc1ccc(CCn2c(=N)c(C(=O)NCc3cccnc3)cc3c(=O)n4cccc(C)c4nc32)cc1 | 13.2 µM | 12.7 µM | > 32 µM | 4 µM | 3.6 µM | 0.373 µM | 
34 | CCOC(=O)c1cnc2ccc(Cl)cc2c1NCCCN(C)C | 16.2 µM | 16.1 µM | > 32 µM | 7.4 µM | 4.19 µM | 1.19 µM | 98%
35 | O=C1c2ccccc2C2=Nc3ccccc3SC(c3cccc(F)c3)C12 (stereo not given) | > 32 µM | > 32 µM | > 32 µM | > 32 µM | 7.17 µM | 0.415 µM | 94%
36 | Cc1ccc2nc(C)cc(Nc3cccc(C(F)(F)F)c3)c2c1 | 5.96 µM | 3.06 µM | 28.9 µM | 4.12 µM | 3.86 µM | 1.17 µM | 98%
37 | CC1CC(C)CN(C(=O)c2ccc(Cl)cc2Cl)C1 (stereo not given) | 24.7 µM | 17.3 µM | > 32 µM | > 32 µM | > 32 µM | 0.756 µM | 95%
38 | CCCCc1ccc(NS(=O)(=O)c2cc3c4c(c2)CCN4C(=O)CC3)cc1 | 13.6 µM | 19 µM | 5.61 µM | > 32 µM | 16.3 µM | 0.538 µM | 96%
39 | CCn1c2c(c(=N)c3c1CCC3)CCCC2 | 9.02 µM | > 32 µM | 32 µM | > 32 µM | > 32 µM | 0.695 µM | 77%
40 | CCOc1ccccc1CNC(=O)C1c2ccccc2C(=O)N(CC(C)C)C1c1cccs1 (stereo not given) | 14.9 µM | > 32 µM | > 32 µM | 16.1 µM | 16.1 µM | 1.32 µM | 97%
41 | COc1ccc2c(c1OC)C(=O)N1c3ccccc3N=C(c3ccc(C)cc3)CC21 (stereo not given) | > 32 µM | > 32 µM | > 32 µM | 4.28 µM | 3.83 µM | 1.24 µM | 93%
42 | CCOc1ccc(Nc2c3ccccc3nc3ccccc23)cc1 | 1.25 µM | 1.59 µM | 8.44 µM | 3.45 µM | 0.976 µM | 1.06 µM | 97%
43 | CCCN(CCC)CCCNC(=O)c1cc2c(-c3ccc(OC)c(OC)c3)nn(C)c2s1 | 27.5 µM | 16 µM | > 32 µM | > 32 µM | 14.6 µM | 1.43 µM | 98%
44 | Nc1ccn([C@@H]2O[C@H](CO)[C@@H](O)[C@H]2O)c(=O)n1 [CYTIDINE] | > 32 µM | > 32 µM | > 32 µM | > 32 µM | > 32 µM | 0.385 µM | 
